Assays:
[1] = molecular target: Kelch domain of human KEAP1 (321-624 aa) (Homo sapiens (Human), UniProt Q14145); assay: KEAP1 KELCH ThermoFluor binding assay; details: KEAP Kelch […], 1,8-ANS, pH 7.0, average of results obtained, read-out: Tf Kd;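 further: Ligand-induced melting temperature shift of E. coli-expressed KEAP1 Kelch protein, Kd estimated from concentration-response curves of ΔTm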
[2] = test system: Glo-Response ARE-luc2P HEK293 cell line; assay: ARE luciferase reporter cell-based assay; details: Homo sapiens, HEK293, 24 h, average of results obtained;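 further: luciferase signal tracks Nrf2 activation of the ARE once compounds disrupt KEAP1-Nrf2 binding, read with One-Glo reagent, DMSO serving as low control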

Sequence of Kelch domain of human KEAP1 (321-624 aa) (Q14145 321-624): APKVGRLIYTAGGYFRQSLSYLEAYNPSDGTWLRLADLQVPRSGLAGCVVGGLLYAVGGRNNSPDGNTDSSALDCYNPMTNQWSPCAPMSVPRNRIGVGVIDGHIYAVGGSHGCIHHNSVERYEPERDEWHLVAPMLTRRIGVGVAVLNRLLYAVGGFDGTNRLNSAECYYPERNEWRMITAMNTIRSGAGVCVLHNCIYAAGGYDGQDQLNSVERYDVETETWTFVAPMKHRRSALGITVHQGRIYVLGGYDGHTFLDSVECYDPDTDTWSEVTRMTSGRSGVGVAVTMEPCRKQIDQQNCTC

Kd [1]	SMILES	EC50 [2]
< 1 nM	Cc1ccc([C@@H](CC(=O)O)c2ccn3c(C(F)(F)F)nnc3c2C)nc1CN1C[C@@H]2CCCCN2c2ncccc2S1(=O)=O (single isomer, unassigned) [Example 479, (*S)-3-(6-(((*S)-5,5-Dioxido-7,7a,8,9,10,11-hexahydro-6H-dipyrido[2,1-d:2′,3′-f][1,2,5]thiadiazepin-6-yl)methyl)-5-methylpyridin-2-yl)-3-(8-methyl-3-(trifluoromethyl)-[1,2,4]triazolo[4,3-a]pyridin-7-yl)propanoic Acid]	48.8 nM
< 1 nM	Cc1ccc([C@H](CC(=O)O)c2ccn3c(C(F)(F)F)nnc3c2C)nc1CN1C[C@@H]2CCCCN2c2ncccc2S1(=O)=O (single isomer, unassigned) [Example 480, (*R)-3-(6-(((*S)-5,5-Dioxido-7,7a,8,9,10,11-hexahydro-6H-dipyrido[2,1-d:2′,3′-f][1,2,5]thiadiazepin-6-yl)methyl)-5-methylpyridin-2-yl)-3-(8-methyl-3-(trifluoromethyl)-[1,2,4]triazolo[4,3-a]pyridin-7-yl)propanoic Acid]	252 nM
< 1 nM	Cc1ccc([C@@H](CC(=O)O)c2ccn3c(C(F)(F)F)nnc3c2C)nc1CN1CC2(CC2)Oc2ncccc2S1(=O)=O (single isomer, unassigned) [Example 482, (*S)-3-(6-((1′,1′-Dioxidospiro[cyclopropane-1,4′-pyrido[2,3-b][1,4,5]oxathiazepin]-2′(3′H)-yl)methyl)-5-methylpyridin-2-yl)-3-(8-methyl-3-(trifluoromethyl)-[1,2,4]triazolo[4,3-a]pyridin-7-yl)propanoic Acid]	701 nM
< 1 nM	Cc1ccc([C@H](CC(=O)O)c2ccn3c(C(F)(F)F)nnc3c2C)nc1CN1CC2(CC2)Oc2ncccc2S1(=O)=O (single isomer, unassigned) [Example 483, (*R)-3-(6-((1′,1′-Dioxidospiro[cyclopropane-1,4′-pyrido[2,3-b][1,4,5]oxathiazepin]-2′(3′H)-yl)methyl)-5-methylpyridin-2-yl)-3-(8-methyl-3-(trifluoromethyl)-[1,2,4]triazolo[4,3-a]pyridin-7-yl)propanoic Acid]	3450 nM
< 1 nM	Cc1ccc([C@@H](CC(=O)O)c2ccn3c(C(F)(F)F)nnc3c2C)nc1CN1CC2(COC2)Oc2ccccc2S1(=O)=O (single isomer, unassigned) [Example 485, (*S)-3-(6-((1,1-dioxidospiro[benzo[b][1,4,5]oxathiazepine-4,3′-oxetan]-2(3H)-yl)methyl)-5-methylpyridin-2-yl)-3-(8-methyl-3-(trifluoromethyl)-[1,2,4]triazolo[4,3-a]pyridin-7-yl)propanoic Acid]	156 nM
1.83 nM	Cc1ccc([C@H](CC(=O)O)c2ccn3c(C(F)(F)F)nnc3c2C)nc1CN1CC2(COC2)Oc2ccccc2S1(=O)=O (single isomer, unassigned) [Example 486, (*R)-3-(6-((1,1-dioxidospiro[benzo[b][1,4,5]oxathiazepine-4,3′-oxetan]-2(3H)-yl)methyl)-5-methylpyridin-2-yl)-3-(8-methyl-3-(trifluoromethyl)-[1,2,4]triazolo[4,3-a]pyridin-7-yl)propanoic Acid]	333 nM
< 1 nM	Cc1cnc2c(c1)S(=O)(=O)N(Cc1nc([C@H](CC(=O)O)c3ccn4c(C(F)(F)F)nnc4c3C)ccc1C)C[C@@H]1CCCCN21 (single isomer, unassigned) [Example 489, (*R)-3-(8-Methyl-3-(trifluoromethyl)-[1,2,4]triazolo[4,3-a]pyridin-7-yl)-3-(5-methyl-6-(((*S)-3-methyl-5,5-dioxido-7,7a,8,9,10,11-hexahydro-6H-dipyrido[2,1-d:2′,3′-f][1,2,5]thiadiazepin-6-yl)methyl)pyridin-2-yl)propanoic Acid]	29.8 nM
< 1 nM	Cc1cnc2c(c1)S(=O)(=O)N(Cc1nc([C@@H](CC(=O)O)c3ccn4c(C(F)(F)F)nnc4c3C)ccc1C)C[C@H]1CCCCN21 (single isomer, unassigned) [Example 491, (*S)-3-(8-Methyl-3-(trifluoromethyl)-[1,2,4]triazolo[4,3-a]pyridin-7-yl)-3-(5-methyl-6-(((*R)-3-methyl-5,5-dioxido-7,7a,8,9,10,11-hexahydro-6H-dipyrido[2,1-d:2′,3′-f][1,2,5]thiadiazepin-6-yl)methyl)pyridin-2-yl)propanoic Acid]	5.53 nM
< 1 nM	Cc1cnc2c(c1)S(=O)(=O)N(Cc1nc([C@H](CC(=O)O)c3ccn4c(C(F)(F)F)nnc4c3C)ccc1C)C[C@H]1CCCCN21 (single isomer, unassigned) [Example 492, (*R)-3-(8-Methyl-3-(trifluoromethyl)-[1,2,4]triazolo[4,3-a]pyridin-7-yl)-3-(5-methyl-6-(((*R)-3-methyl-5,5-dioxido-7,7a,8,9,10,11-hexahydro-6H-dipyrido[2,1-d:2′,3′-f][1,2,5]thiadiazepin-6-yl)methyl)pyridin-2-yl)propanoic Acid]	12.9 nM
< 1 nM	Cc1ccc([C@@H](CC(=O)O)c2ccn3c(C(F)(F)F)nnc3c2C)nc1CN1CC2(COC2)Oc2ncccc2S1(=O)=O (single isomer, unassigned) [Example 494, (*S)-3-(6-((1′,1′-Dioxidospiro[oxetane-3,4′-pyrido[2,3-b][1,4,5]oxathiazepin]-2′(3′H)-yl)methyl)-5-methylpyridin-2-yl)-3-(8-methyl-3-(trifluoromethyl)-[1,2,4]triazolo[4,3-a]pyridin-7-yl)propanoic Acid]	577 nM
< 1 nM	Cc1ccc([C@H](CC(=O)O)c2ccn3c(C(F)(F)F)nnc3c2C)nc1CN1CC2(COC2)Oc2ncccc2S1(=O)=O (single isomer, unassigned) [Example 495, (*R)-3-(6-((1′,1′-Dioxidospiro[oxetane-3,4′-pyrido[2,3-b][1,4,5]oxathiazepin]-2′(3′H)-yl)methyl)-5-methylpyridin-2-yl)-3-(8-methyl-3-(trifluoromethyl)-[1,2,4]triazolo[4,3-a]pyridin-7-yl)propanoic Acid]	2860 nM
< 1 nM	Cc1ccc([C@@H](CC(=O)O)c2ccn3c(C(F)(F)F)nnc3c2C)nc1CN1C[C@@H]2CCCCN2c2ncc(F)cc2S1(=O)=O (single isomer, unassigned) [Example 497, (*S)-3-(6-(((*S)-3-Fluoro-5,5-dioxido-7,7a,8,9,10,11-hexahydro-6H-dipyrido[2,1-d:2′,3′-f][1,2,5]thiadiazepin-6-yl)methyl)-5-methylpyridin-2-yl)-3-(8-methyl-3-(trifluoromethyl)-[1,2,4]triazolo[4,3-a]pyridin-7-yl)propanoic Acid]	4.47 nM
< 1 nM	Cc1ccc([C@H](CC(=O)O)c2ccn3c(C(F)(F)F)nnc3c2C)nc1CN1C[C@@H]2CCCCN2c2ncc(F)cc2S1(=O)=O (single isomer, unassigned) [Example 498, (*R)-3-(6-(((*S)-3-Fluoro-5,5-dioxido-7,7a,8,9,10,11-hexahydro-6H-dipyrido[2,1-d:2′,3′-f][1,2,5]thiadiazepin-6-yl)methyl)-5-methylpyridin-2-yl)-3-(8-methyl-3-(trifluoromethyl)-[1,2,4]triazolo[4,3-a]pyridin-7-yl)propanoic Acid]	14.7 nM
< 1 nM	Cc1ccc([C@@H](CC(=O)O)c2ccn3c(C(F)(F)F)nnc3c2C)nc1CN1CC2(CC2)Oc2ncc(F)cc2S1(=O)=O (single isomer, unassigned) [Example 509, (*S)-3-(6-((8′-Fluoro-1′,1′-dioxidospiro[cyclopropane-1,4′-pyrido[2,3-b][1,4,5]oxathiazepin]-2′(3′H)-yl)methyl)-5-methylpyridin-2-yl)-3-(8-methyl-3-(trifluoromethyl)-[1,2,4]triazolo[4,3-a]pyridin-7-yl)propanoic Acid]	70.4 nM
< 1 nM	Cc1ccc([C@H](CC(=O)O)c2ccn3c(C(F)(F)F)nnc3c2C)nc1CN1CC2(CC2)Oc2ncc(F)cc2S1(=O)=O (single isomer, unassigned) [Example 510, (*R)-3-(6-((8′-Fluoro-1′,1′-dioxidospiro[cyclopropane-1,4′-pyrido[2,3-b][1,4,5]oxathiazepin]-2′(3′H)-yl)methyl)-5-methylpyridin-2-yl)-3-(8-methyl-3-(trifluoromethyl)-[1,2,4]triazolo[4,3-a]pyridin-7-yl)propanoic Acid]	314 nM
< 1 nM	CCc1c([C@@H](CC(=O)O)c2ccc(C)c(CN3C[C@H]4CCCCN4c4ncc(C)cc4S3(=O)=O)c2)ccn2c(C(F)(F)F)nnc12 (single isomer, unassigned) [Example 516, (*S)-3-(8-Ethyl-3-(trifluoromethyl)-[1,2,4]triazolo[4,3-a]pyridin-7-yl)-3-(4-methyl-3-(((*R)-3-methyl-5,5-dioxido-7,7a,8,9,10,11-hexahydro-6H-dipyrido[2,1-d:2′,3′-f][1,2,5]thiadiazepin-6-yl)methyl)phenyl)propanoic Acid]	11.1 nM
< 1 nM	Cc1ccc([C@@H](CC(=O)O)c2ccn3c(C(F)(F)F)nnc3c2C)nc1CN1C[C@@H]2CCCCN2c2ncc(Cl)cc2S1(=O)=O (single isomer, unassigned) [Example 519, (*S)-3-(6-(((*S)-3-Chloro-5,5-dioxido-7,7a,8,9,10,11-hexahydro-6H-dipyrido[2,1-d:2′,3′-f][1,2,5]thiadiazepin-6-yl)methyl)-5-methylpyridin-2-yl)-3-(8-methyl-3-(trifluoromethyl)-[1,2,4]triazolo[4,3-a]pyridin-7-yl)propanoic Acid]	16 nM
